Residues, ends and D or L forms follow the SMILES beside them. *: point of attachment. Cbz = O=C(OCc1ccccc1)*
Experiments:
clinical PCLS tissues = experiment: FPS/PLS response (CES, nCounter) in organotypic ex vivo culture of clinical PCLS tissues; format: cell-based, human; conditions: for FPS response rate (number of responding patients): count of patients with CES-based FPS response; for FPS response rate (number of responding patients) / FPS response rate: PCLS cultured 24 h with agent vs vehicle; for PLS response rate (number of responding patients): count of patients with PLS response; for PLS response rate (number of responding patients) / PLS response rate: ex vivo PCLS culture; for modulation of SLC7A1 (CAT1): drug-level FPS gene modulation in ex vivo PCLS culture; for FPS response rate: percent of patients tested with CES-based FPS response; for PLS response rate: percent of patients tested with PLS response
Text: (§1) Evaluation of galunisertib, erlotinib, AM095, bortezomib, pioglitazone, metformin, epigallocatechin gallate (EGCG), I-BET 151, JQ1, captopril, nizatidine (Selleck Chemicals); MG-132 (Sigma-Aldrich); cenicriviroc (AbbVie) (Table 2) were done in organotypic ex vivo culture of precision-cut liver slice (PCLS) tissues in the FPS validation set 2 as previously described. Patient-derived liver cell spheroids were generated from a cirrhosis patient and high-risk FPS was induced by free fatty acids, and treated with EGCG, bortezomib, cenicriviroc, and/or bezafibrate for 48 h. Mycoplasma-free human hepatic myofibroblast cell lines, LX-2 and TWNT-4, were cultured with MG-132 (20 μM) or DMSO control for 12 and 24 h in triplicates.
(§2) Total RNA was isolated from fixed tissue sections by using High Pure RNA Paraffin kit (Roche), and assessed for quality by qRT-PCR of RPL13A. Total RNA from the PCLS tissues was isolated using RNeasy kit (Qiagen). RNA samples (100-200 ng) were subjected to the PLS/FPS assay implemented in the nCounter platform (NanoString), and transcriptome profiling of the CENTAUR trial samples was performed by RNA-Seq (TrueSeq RNA Access, Illumina). Expression of BCL2, COL1A1, and ACTA2 genes was measured by qRT-PCR (Table 3). Serum protein profiling was performed by using xMAP assay (Luminex).
Total RNA was isolated from three to five 10-μm-thick formalin-fixed paraffin-embedded (FFPE) tissue sections from the PLS/FPS derivation/validation cohorts by using High Pure RNA Paraffin kit (Roche), and lack of severe RNA fragmentation was confirmed by qRT-PCR of a housekeeping gene RPL13A as previously described.^1 From freshly harvested myofibroblast cell lines, LX-2 and TWNT-4, and clinical precision-cut-liver slice (PCLS) tissues stored in RNAlater (ThermoFisher) at −80?C, total RNA was isolated using RNeasy kit (Qiagen), and the RNA integrity number (RIN)>8 by Bioanalyzer (Agilent) was regarded as sufficient quality for expression analysis. Total RNA samples (100 to 500 ng) were subjected to the gene signature assays implemented in the digital transcript counting technology (NanoString) according to manufacturer's instruction. Poor quality profiles were detected based on maximum signal intensity from positive control probes <3,000U. Raw transcript count data were log-transformed (base 2) and scaled by geometric mean of control probe data by using NanoString normalizer module implemented in GenePattern data analysis suite (www.broadinstitute.org/genepattern). Genome-wide transcriptome profiling of the CENTAUR trial samples was performed using 100 to 200 ng total RNA by RNA-Seq using exome-enriched library preparation according to the manufacturer's protocol (TrueSeq, Illumina). Raw sequencing reads were mapped onto the reference human genome (hg19) by using the STAR aligner (ver. 2.6.1b) followed by the read counting on genes via featureCounts in the Subread package (ver. 1.6.1). The raw read counts were further normalized by using the Relative Log Expression (RLE) implemented in the DESeq2 package (ver. 1.22.2). Expression of COL1A1, and ACTA2, and BCL2 genes was measured by qRT-PCR (BioRad) using ddCt method with RPL13A as housekeeping gene, as previously described (refer Table 3 for the primer sequences). Gene expression profiles of the PLS/FPS-inducible cell culture model (cell-culture-derived PLS [cPLS] system) treated with erlotinib, pioglitazone, captopril, and resveratrol were obtained from our previous study (GSE81801).

[1] = tested on: human precision-cut liver slice (PCLS); experiment: MG-132 effect on COL1A1, ACTA2 and BCL2 expression (qRT-PCR) in ex vivo PCLS culture; format: cell-based; conditions: PCLS from two patients, HCV (F1) and NAFLD (F2); vs DMSO
Text: as §1
as §2, with “(Luminex). […]” for “(Luminex).”

[2] = tested on: biliary fibrosis induced by bile duct ligation; conditions: bile duct ligation in mice; cited from earlier work
clinical PCLS tissue = experiment: Immunostaining of cleaved caspase-3, alpha-SMA and GFAP in PCLS tissues cultured with MG-132 or DMSO; format: cell-based, human; conditions: PCLS tissues cultured with MG-132 vs DMSO, five patients
Method: FIG. 4A depicts a co-expression gene network defined in the FPS derivation set 1 to 4. Hub genes are indicated with larger nodes. Synthesized association with time to fibrosis progression (Fisher's inverse chi-square statistic) in the FPS derivation set 1 and 2 is shown by red (poor outcome) to blue (good outcome) color scale. […] All assays were performed in triplicates. Green dotted line indicates expression level of the DMSO-treated control. […] Paired tissues from the same patient are connected with a line. Wilcoxon signed-rank test p-value is shown. […] Scale bars indicate 50 μm and 25 μm for upper and lower panels, respectively. […] Scale bars indicate 100 μm. […] NES: normalized enrichment score. FDR: false discovery rate.
Immunostaining was performed for caspase-3 (Asp175) (5A1E, Cell Signaling), alpha-SMA (Abcam), Desmin (DAKO), GFAP (abcam), and Ki-67 (Abcam). TUNEL staining was performed using ApopTag Peroxidase In Situ Apoptosis Detection Kit (EMD Millipore).

[3] = tested on: PCLS tissue from a chronic hepatitis C patient with F2 fibrosis; experiment: Validation of combination therapies by liver fibrosis gene panel in ex vivo culture of a clinical fibrotic PCLS tissue; format: cell-based, human; conditions: agent added to EGCG
Text: as §1
To test this idea, synergistic effect of the agents to shift the FPS from high- to low-risk pattern was computationally inferred, i.e., suppression of the high-risk genes and/or induction of the low-risk genes (see materials and methods).

TWNT-4 = experiment: MG-132 effect on COL1A1, ACTA2 and BCL2 expression (qRT-PCR) in TWNT-4; format: cell-based, human; conditions: MG-132 20 μM vs DMSO, 12 and 24 h
Text: as §1
as §2, with “(Luminex). […]” for “(Luminex).”

LX-2 = experiment: MG-132 effect on COL1A1, ACTA2 and BCL2 expression (qRT-PCR) in LX-2; format: cell-based, human; conditions: MG-132 20 μM vs DMSO, 12 and 24 h
Text: as §1
as §2, with “(Luminex). […]” for “(Luminex).”

Row | Compound | FPS response rate (number of responding patients) (clinical PCLS tissues) | PLS response rate (number of responding patients) (clinical PCLS tissues) | modulation of SLC7A1 (CAT1) (clinical PCLS tissues) | also measured
1 | Cc1noc(-c2ccc(-c3ccc(CC(=O)O)cc3)cc2)c1NC(=O)O[C@H](C)c1ccccc1 [AM095] | 11 | 8 | similarly striking suppression | FPS response rate (clinical PCLS tissues): 38%; PLS response rate (clinical PCLS tissues): 27.59%
2 | CC(C)C[C@@H](C=O)NC(=O)[C@H](CC(C)C)NC(=O)[C@H](CC(C)C)NC(=O)OCc1ccccc1 [MG132] (Cbz-Leu-Leu-Leu-aldehyde) | 6 | 3 |  | modulation of high-risk FPS genes (gene set enrichment analysis) (clinical PCLS tissues; clinical fibrotic PCLS tissues, ex vivo MG-132, FDR≤0.008): significantly suppressed; expression of COL1A1, ACTA2 and BCL2 [1]: reduced expression; myofibroblast activation and biliary fibrosis [2]: reduced myofibroblast activation and inhibit biliary fibrosis; cleaved-caspase-3-positive cells (apoptosis induction) (clinical PCLS tissue): increased; expression of genes encoding extracellular matrix proteins (COL1A1, HAS2) and fibrogenic drivers (PDGFRB, TGFB1, NOTCH1, LPAR1) [3]: substantially reduced expression; expression of COL1A1, ACTA2 and BCL2 (TWNT-4): suppression; expression of COL1A1, ACTA2 and BCL2 (LX-2): suppression
3 | CN(C)C(=N)N=C(N)N [Metformin] | 7 | 6 | similarly striking suppression | 
4 | CNC(=C[N+](=O)[O-])NCCSCc1csc(CN(C)C)n1 [Nizatidine] | 3 | 3 |  | 
5 | Cc1cccc(-c2nn3c(c2-c2ccnc4ccc(C(N)=O)cc24)CCC3)n1 [Galunisertib] | 6 | 7 | similarly striking suppression | 
6 | CC(C)C[C@H](NC(=O)[C@H](Cc1ccccc1)NC(=O)c1cnccn1)B(O)O [Bortezomib] | 4 | 5 |  | myofibroblast activation and biliary fibrosis [2]: reduced myofibroblast activation and inhibit biliary fibrosis; expression of genes encoding extracellular matrix proteins (COL1A1, HAS2) and fibrogenic drivers (PDGFRB, TGFB1, NOTCH1, LPAR1) [3]: substantially reduced expression
7 | C#Cc1cccc(Nc2ncnc3cc(OCCOC)c(OCCOC)cc23)c1 [Erlotinib] | 11 | 13 |  | 
8 | O=C(O[C@@H]1Cc2c(O)cc(O)cc2O[C@@H]1c1cc(O)c(O)c(O)c1)c1cc(O)c(O)c(O)c1 [Epigallocatechin gallate] | 7 | 9 |  | FPS response rate (clinical PCLS tissues): 64%; PLS response rate (clinical PCLS tissues): 81.82%
9 | CCc1ccc(CCOc2ccc(CC3SC(=O)NC3=O)cc2)nc1 (stereo not shown) [Pioglitazone] | 6 | 7 |  | 
